Experimental data published in PMC8086144, “A novel peptide antagonist of the human growth hormone receptor” (The Journal of Biological Chemistry, 2021).

How the values were obtained:
[1] = Wavelength-dependent CD spectropolarimetry (helical propensity); assay type: physicochemical; conditions: 25 °C; for % α-helix - TFE / % α-helix + TFE: calculated from MRE at 222 nm (Equation 1); for % α-helix - TFE / [θ]222 - TFE (mean residue ellipticity at 222 nm): 20 μM peptide in PBS, no TFE; for [θ]222 - TFE (mean residue ellipticity at 222 nm) / [θ]222 + TFE (mean residue ellipticity at 222 nm): far-UV CD, background-subtracted average of four scans, in deg·cm2/dmol (unit assumed); for % α-helix + TFE / [θ]222 + TFE (mean residue ellipticity at 222 nm): 20 μM peptide in PBS with 30% (v/v) TFE
Protocol: The solution-phase structure of each peptide was evaluated by wavelength-dependent CD spectropolarimetry. For analysis, stock peptides were diluted to a final concentration of 20 μM in PBS supplemented with or without 30% (v/v) TFE. All peptide solutions were allowed to equilibrate for 10 min at 25 °C before analysis. Far-UV wavelength scans were performed on a Jasco J-715 CD spectropolarimeter from 255 nm to 195 nm at 25 °C. Final spectra were generated from a background subtracted (buffer only) average of four scans. Data were processed using J-700 Software v1.5 (Jasco) and KaleidaGraph v4.5. Percent helicity was calculated from the mean residue ellipticity at 222 nm using Equation 1:(1) %helical content=100×([θ]222/(−39,000(1−2.57/n))) where [θ]222 is the mean residue ellipticity at 222 nm and n is the total number of peptide bonds ([86]).

hGHR = biological target: T1, hGHR (Homo sapiens, UniProt P10912); test: hGH-mediated pSTAT5 in SK-MEL-28 cells, ELISA; assay type: cell-based; conditions: ELISA (pSTAT5A Y694/pSTAT5B Y699), SK-MEL-28 cells co-treated with hGH and 200 nM peptide, Equation 2, triplicate; for % pSTAT5 inhibition: 20 min; for inhibition at 0.2 µM: SK-MEL-28, 20 min
T1 construct: previously reported to express high levels of endogenous hGHR; host or cells: SK-MEL-28, MALME-3M, IM9
T1 sequence (P10912 19-638): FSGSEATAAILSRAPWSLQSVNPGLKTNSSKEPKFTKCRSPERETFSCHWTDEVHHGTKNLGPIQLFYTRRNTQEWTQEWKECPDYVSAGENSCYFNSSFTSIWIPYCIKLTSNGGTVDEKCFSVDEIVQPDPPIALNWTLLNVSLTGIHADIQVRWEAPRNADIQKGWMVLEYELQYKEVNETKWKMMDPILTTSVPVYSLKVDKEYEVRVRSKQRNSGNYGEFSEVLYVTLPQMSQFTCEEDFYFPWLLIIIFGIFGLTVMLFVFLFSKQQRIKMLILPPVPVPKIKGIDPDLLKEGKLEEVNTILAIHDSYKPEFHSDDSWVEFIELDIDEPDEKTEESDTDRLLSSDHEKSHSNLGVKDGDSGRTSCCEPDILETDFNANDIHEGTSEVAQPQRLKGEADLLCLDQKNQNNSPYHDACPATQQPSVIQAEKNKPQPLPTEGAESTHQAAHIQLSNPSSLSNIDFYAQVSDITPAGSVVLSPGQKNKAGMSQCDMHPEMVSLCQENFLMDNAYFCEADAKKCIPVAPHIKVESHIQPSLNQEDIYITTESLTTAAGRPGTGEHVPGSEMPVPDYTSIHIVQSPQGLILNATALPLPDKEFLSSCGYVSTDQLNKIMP
Protocol: SK-MEL-28, MALME-3M, and T84 cells were grown and maintained in Eagle's Minimal Essential Medium. IM9 and L cells were grown in RPMI-1640 media and Dulbecco's modified Eagle's medium, respectively. All growth media was supplemented with 10% fetal bovine serum and 1× antibiotic-antimycotic […] solution. Cells were grown at 37 °C under a 5% CO2 atmosphere in a humidified incubator, and growth media was replaced every 48 h during incubation. No hGH was present in or added to the growth media unless specifically indicated. Between 12 to 16 h after seeding, adherent cells (SK-MEL-28, MALME-3M, T84, L cells) were switched to serum-free growth media (no GH) and starved for 4 h before the addition of hGH, bGH (L cells), hPRL (MALME-3M and T84 cells), or buffer at the concentrations noted. Cells were then allowed to incubate for an additional 20 min before being harvested. For suspended cell treatments, IM9 cells were pelleted by centrifugation at 140g for 5 min at room temperature. The supernatant was then removed by aspiration, and the cells were resuspended in serum-free media. The cells were then starved for 4 h at 37 °C under a 5% CO2 atmosphere in a humidified incubator and subsequently treated with hGH, S1H, or both at the indicated concentrations for 20 min before harvesting by centrifugation.
Following treatment, the cells were harvested at the indicated time points, and the total protein was extracted. To affect protein extraction, the treatment media was removed by aspiration, and the cells were washed twice with ice-cold PBS. Following washing, total protein was extracted from the cells using RIPA buffer (100 μl/million cells) supplemented with 1.5× Halt protease and phosphatase inhibitor cocktail. Briefly, chilled RIPA buffer was added to the cells, and the lysis reaction was allowed to incubate for 5 min at 4 °C. Adherent cells were harvested for lysis using a sterile cell scraper. The resultant cell suspensions were sonicated on ice for 60 s with ON (2-s)/OFF (1-s) pulses at 2% power. The cell lysate was then cleared by centrifugation at 8000g for 10 min at 4 °C. Following centrifugation, the supernatant was collected and stored at −80 °C until further use. Sample protein concentration was quantified using a Bradford assay with bovine serum albumin as the protein standard. Absorbance at 595 nm was measured using a Spectramax 250 multimode plate reader (Molecular Devices) and processed using SoftmaxPro v4.7.1 software.
Intracellular pSTAT5A (Y694) and pSTAT5B (Y699) levels were quantified from clarified protein samples using an InstantOne ELISA kit (Thermo Fisher) according to the manufacturer’s instructions. Briefly, 50 μl of protein sample (1 mg/ml) were added to wells containing 50 μl antibody cocktail in a 96-well plate and incubated at room temperature for 2 h with shaking (300 rpm). Following incubation, the wells were washed, and the bound antibodies were detected by adding detection regent and incubating the plate for 1 h at room temperature with shaking (300 rpm). Following incubation, stop reagent was added, and the absorbance was read at 450 nm using a UV-VIS spectrophotometer (Molecular Devices, model M2). All experiments were performed in triplicate. Percent pSTAT5 inhibition was calculated from background-subtracted pSTAT5 levels using Equation 2:(2) %inhibition=100×(pSTAT5hGH−pSTAT5PI)/pSTAT5hGH where pSTAT5hGH is the fold-induction of pSTAT5 upon treatment with hGH alone and pSTAT5PI is the fold-induction of pSTAT5 upon co-treatment with hGH and peptide inhibitor.

[2] = biological target: T2, trypsin (bovine pancreas) (Bos taurus, UniProt P00760); test: Trypsin degradation of hGH and pegvisomant (HPLC and Western blot); assay type: in vitro ADME; conditions: 4 μg/ml trypsin in digestion buffer pH 7.8, 37 °C, up to 8 h, 25 μg/ml protein
T2 construct: purchased Sigma-Aldrich; host or cells: bovine pancreas
T2 sequence (P00760 24-246): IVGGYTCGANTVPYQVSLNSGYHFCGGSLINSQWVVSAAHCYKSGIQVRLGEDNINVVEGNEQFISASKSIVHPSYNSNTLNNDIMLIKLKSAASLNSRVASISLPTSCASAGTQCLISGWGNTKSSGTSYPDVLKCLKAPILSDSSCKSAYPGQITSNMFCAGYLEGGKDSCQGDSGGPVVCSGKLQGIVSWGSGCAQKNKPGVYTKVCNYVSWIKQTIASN
Protocol: (§1) The samples were then incubated at 95 °C for 5 min before being cooled on ice and stored at −80 °C. […] Following separation, the proteins were transferred to polyvinylidine difluoride membranes and subjected to Western blot analysis (vide infra). The fraction of intact protein was quantified by measuring the integrated density of each band contained within regions of the gel corresponding to “intact” or “degraded” proteins. […] These reactions were allowed to incubate at 37 °C for up to 8 h, with samples removed at selected timepoints for analysis. Following incubation, the samples were either mixed with 5× Laemmli loading buffer and subjected to SDS-PAGE for Western blot analysis (Fig. S5) or directly injected onto a C18 reversed-phase column for analysis by HPLC as described above for the S1H peptide (Fig. S4).

[3] = Stability of hGH and pegvisomant in human serum (Western blot); assay type: in vitro ADME; conditions: RPMI with 25% (v/v) heat-inactivated human AB serum, 37 °C, 25 μg/ml protein, SDS-PAGE/Western blot densitometry, average of three experiments
Protocol: as §1

In the case of Ac-YIPKEQKYSFAQNPQT-NH2 [S1H (L46A)], the “% α-helix - TFE” value [1] is reported as 7.0%, the “[θ]222 - TFE (mean residue ellipticity at 222 nm)” value (“[θ]222 - TFE” for short) [1] is reported as -2,300 and the “% pSTAT5 inhibition” value (hGHR) is reported as “comparable to WT S1H”. For the same substance, the inhibition at 0.2 µM (hGHR) was 75.1%.

In the case of Ac-YIPKEQKYSFLQAPQT-NH2 [S1H (N48A)], the “% α-helix + TFE” value [1] is reported as 12.2%, the “% α-helix - TFE” value [1] is reported as 6.7% and the “[θ]222 + TFE (mean residue ellipticity at 222 nm)” value (“[θ]222 + TFE” for short) [1] is reported as -4,100. The “[θ]222 - TFE” value [1] was -2,200 and the inhibition at 0.2 µM (hGHR) was 89.1%.

With Ac-YIPKEQKASFLQNPQT-NH2 [S1H (Y43A)] the “% α-helix + TFE” value [1] was 68.8%, the “% α-helix - TFE” value [1] was 11.2% and the “[θ]222 + TFE” value [1] was -22,800. For the same substance, the “[θ]222 - TFE” value [1] was -3,700, the “% pSTAT5 inhibition” value (hGHR) was “comparable to WT S1H” and the inhibition at 0.2 µM (hGHR) was 66.6%.

In the case of “hGH: recombinant human growth hormone, 191-amino acid peptide hormone (22 kDa)”, the “time to full degradation by trypsin” value [2] is reported as 8 h and the “protein remaining intact after 48 h in human serum” value [3] is reported as greater than 92%.

In the case of Ac-YIPKEQKYSFLANPQT-NH2 [S1H (Q47A)], the “% α-helix + TFE” value [1] is reported as 86.3%, the “% α-helix - TFE” value [1] is reported as 8.2% and the “[θ]222 - TFE” value [1] is reported as -2,700. The inhibition at 0.2 µM (hGHR) was 30.1%.

With Ac-YIPKEQKYAFLQNPQT-NH2 [S1H (S44A)] the “% α-helix + TFE” value [1] was 63.5%, the “% α-helix - TFE” value [1] was 15.7% and the “[θ]222 + TFE” value [1] was -21,100. For the same substance, the “[θ]222 - TFE” value [1] was -5,200, the “% pSTAT5 inhibition” value (hGHR) was “comparable to WT S1H” and the inhibition at 0.2 µM (hGHR) was 72.3%.

In the case of Ac-YIPKEQKYSALQNPQT-NH2 [S1H (F45A)], the “% α-helix + TFE” value [1] is reported as 21.4%, the “% α-helix - TFE” value [1] is reported as 11.1% and the “[θ]222 + TFE” value [1] is reported as -7,100. For the same substance, the “[θ]222 - TFE” value [1] was -3,700, the “% pSTAT5 inhibition” value (hGHR) was “reduced inhibitory effects compared with WT S1H” and the inhibition at 0.2 µM (hGHR) was 52.5%.

Substance Ac-YIPKAQKYSFLQNPQT-NH2 [S1H (E40A)] has an inhibition at 0.2 µM (hGHR) of 33.4%.

For Ac-YIPKEAKYSFLQNPQT-NH2 [S1H (Q41A)], the “% α-helix + TFE” value [1] was 25.4%, the “% α-helix - TFE” value [1] was 8.3% and the “[θ]222 + TFE” value [1] was -8,400. For the same substance, the “[θ]222 - TFE” value [1] was -2,700, the “% pSTAT5 inhibition” value (hGHR) was “reduced inhibitory effects compared with WT S1H” and the inhibition at 0.2 µM (hGHR) was 37.4%.

For Ac-YIPKEQAYSFLQNPQT-NH2 [S1H (K42A)], the “% α-helix + TFE” value [1] was 24.4%, the “% α-helix - TFE” value [1] was 2.4% and the “[θ]222 + TFE” value [1] was -8,100. For the same substance, the “[θ]222 - TFE” value [1] was -800, the “% pSTAT5 inhibition” value (hGHR) was “reduced inhibitory effects compared with WT S1H” and the inhibition at 0.2 µM (hGHR) was 51.7%.

In the case of Ac-YIPAEQKYSFLQNPQT-NH2 [S1H (K39A)], the inhibition at 0.2 µM (hGHR) is reported as 88.5%.
